Experimental data as given in patent publication US8735622B2, “Histone demethylase inhibitors and methods for using the same” (The Regents of the University of Colorado, a body corporate, priority 2011, dated 2014).

Tests used:
[1] = target: T1, JHDM1A (Homo sapiens, UniProt Q9Y2K7); test: Fluorescence polarization (FP) binding assay, JHDM1A; details: read-out: dissociation constant (Kd) to JHDM1A
T1 sequence (Q9Y2K7 1-1162): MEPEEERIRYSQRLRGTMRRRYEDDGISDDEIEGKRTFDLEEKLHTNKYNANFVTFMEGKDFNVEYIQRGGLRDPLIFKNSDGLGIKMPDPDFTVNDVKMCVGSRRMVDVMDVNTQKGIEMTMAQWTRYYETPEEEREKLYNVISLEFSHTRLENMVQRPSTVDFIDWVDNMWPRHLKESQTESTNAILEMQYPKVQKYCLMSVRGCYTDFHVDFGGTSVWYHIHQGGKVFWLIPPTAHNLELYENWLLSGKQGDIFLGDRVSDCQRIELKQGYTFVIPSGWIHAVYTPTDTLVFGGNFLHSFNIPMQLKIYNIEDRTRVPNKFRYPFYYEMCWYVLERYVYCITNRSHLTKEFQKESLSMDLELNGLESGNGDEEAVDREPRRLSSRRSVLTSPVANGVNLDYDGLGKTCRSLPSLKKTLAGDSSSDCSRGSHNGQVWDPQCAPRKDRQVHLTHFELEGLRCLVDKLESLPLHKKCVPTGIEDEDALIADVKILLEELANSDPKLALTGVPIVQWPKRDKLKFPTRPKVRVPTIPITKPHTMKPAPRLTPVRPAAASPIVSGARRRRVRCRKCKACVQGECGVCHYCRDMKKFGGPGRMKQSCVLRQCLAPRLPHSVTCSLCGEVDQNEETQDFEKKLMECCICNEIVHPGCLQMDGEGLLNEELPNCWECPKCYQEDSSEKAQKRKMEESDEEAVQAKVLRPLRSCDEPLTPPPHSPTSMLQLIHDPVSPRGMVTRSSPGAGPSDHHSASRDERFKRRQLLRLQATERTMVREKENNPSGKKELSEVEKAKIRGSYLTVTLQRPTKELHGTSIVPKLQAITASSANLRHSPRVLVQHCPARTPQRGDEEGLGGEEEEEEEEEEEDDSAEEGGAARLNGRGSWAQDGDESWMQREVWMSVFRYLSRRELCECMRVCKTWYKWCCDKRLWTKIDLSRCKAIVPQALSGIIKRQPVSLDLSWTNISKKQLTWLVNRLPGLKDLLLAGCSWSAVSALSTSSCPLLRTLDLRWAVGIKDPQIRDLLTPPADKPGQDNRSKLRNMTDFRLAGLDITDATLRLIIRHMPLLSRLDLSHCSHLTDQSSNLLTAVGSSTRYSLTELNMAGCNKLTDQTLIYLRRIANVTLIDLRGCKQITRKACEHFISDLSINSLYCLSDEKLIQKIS
Protocol: (§1) To measure fluorescence polarization, a Perkin Elmer EnVision 2102 Multilabel plate reader equipped with FP-FITC optic module was used. Corning half-area, black, flat-bottom, polystyrene, 96-well plates (cat. #: 3993) were used for all FP studies. Auto-adjustment of focal height and gain was performed in the well containing 80 μL of 1 nM fluorophore 20, the recommended concentration of fluorescein for this plate reader.
(§2) The dissociation constant (Kd) for fluorophore 20 to GST-JMJD2A(1-420) was measured (See FIG. 8) by titrating 20 (1 nM) with purified JMJD2A using protocols reported by Rossi et al. in Nat. Protoc., 2011, 6(3), 365-87. Fluorescence intensity values in parallel (i.e., I11) and perpendicular (i.e., I⊥) planes for each well were measured after 2 h of incubation at room temperature. For each experimental measurement, the protein background was subtracted, and the polarization (P) was calculated using these corrected values of I11 and I⊥ from the equation: P=(I11−G·I⊥)/(I11+G·I⊥), where the G factor is derived from the instrument auto-adjustment step. […] The Kd for 20 and JHDM1A was determined as 30±5 nM in a similar fashion.

[2] = target: T2, GST-JMJD2A(1-420) (Homo sapiens, UniProt O75164); test: Fluorescence polarization (FP) binding assay, JMJD2A; details: 1 nM fluorophore, 2 h at room temperature, read-out: dissociation constant (Kd) to GST-JMJD2A(1-420)
T2 construct: Recombinant protein preparation of GASC1(1-420), JMJD2A (1-420) and LSD1 (full-length); made in house; host or cells: Escherichia coli BL-21
T2 sequence (O75164 1-420): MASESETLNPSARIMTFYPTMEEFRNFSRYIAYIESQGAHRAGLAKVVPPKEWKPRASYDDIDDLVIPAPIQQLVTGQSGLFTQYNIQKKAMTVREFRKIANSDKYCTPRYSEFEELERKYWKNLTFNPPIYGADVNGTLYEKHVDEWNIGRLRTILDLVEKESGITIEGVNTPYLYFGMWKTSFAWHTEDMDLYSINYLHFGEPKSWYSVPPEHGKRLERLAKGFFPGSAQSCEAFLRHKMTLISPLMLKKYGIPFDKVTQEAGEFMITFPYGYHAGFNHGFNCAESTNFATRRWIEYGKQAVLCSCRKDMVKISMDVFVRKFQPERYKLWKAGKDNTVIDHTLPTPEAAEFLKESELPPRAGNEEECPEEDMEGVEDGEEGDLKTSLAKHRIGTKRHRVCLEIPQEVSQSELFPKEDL
Protocol: as §1, §2

[3] = system: H3K4me3 and H3K9me3 levels in KYSE150 cells; test: Quantitative immunostaining assay of H3K4me3 and H3K9me3 in KYSE150 cells; format: cell-based, human; details: 2.5 μM, 48 h
Protocol: To quantify the cellular activity of methylstat, a quantitative image-based assay was used. […] The cellular effects of methylstat were also cell type-specific.
For quantified immunostaining experiments, KYSE150 or MCF7 cells were seeded in a 96-well plate at 10,000 cells per well and incubated at 37° C. for 24 hours. The medium was replaced and methylstat in DMSO was added at the concentration as indicated. After incubation for another 48 hours, immunostaining procedure was performed as described above using anti-H3K9me3 or anti-H3K4me3 primary antibody. Fluorescent images of cells were acquired by a Nikon Eclipse 90i fluorescence microscope and analyzed using the Cell Scoring analysis module of MetaMorph 7.0 software.

[4] = system: prolyl hydroxylases (PHDs); test: Cellular HIF-1α level (prolyl hydroxylase specificity) in MCF7 cells; format: cell-based, human; details: 24 hours, methylstat up to 15 μM, DFO 150 μM, DMOG 1 and 2 mM
Description: To assess the specificity of methylstat in vivo, another iron(II)- and α-ketoglutarate-dependent dioxygenases, prolyl hydroxylases (PHDs), was examined. PHDs have been reported to regulate normoxic inactivation of hypoxia-inducible factors (HIFs) by hydroxylating specific prolyl residues of HIFs. […] DMOG and DFO have been used to mimic hypoxia conditions by inhibiting PHDs in vivo. […] Similar results were also observed in HeLa cells (see FIG. 7).
Total lysates of cells were generated from the cells lysed in CelLytic M Cell Lysis (Sigma) with protease inhibitor cocktail (Sigma), mixed with 2×LSB buffer (100 mM Tris-HCl pH 6.8, 200 mM DTT, 4% SDS, 20% glycerol and 0.2% bromophenol blue) and boiled for 5 min before SDS-PAGE. BCA assay (Thermo) was applied for protein qualification.

Row | Compound | cellular activity in H3K4me3- and H3K9me3-immunostaining assays relative to methylstat [3] | cellular HIF-1α levels / prolyl hydroxylase inhibition [4] | also measured
1 | NCc1ccc(CN(CCCCN(O)C(=O)/C=C/C(=O)O)C(=S)Nc2ccc(C3=C4C=CC(=O)C=C4Cc4cc(O)ccc43)c(C(=O)O)c2)cc1 [Compound 20] |  |  | Kd [1]: 30 ± 5 nM; Kd [2]: 175 ± 42 nM
2 | COC(=O)C(=O)N(O)CCCCNCc1ccc(COC(=O)Nc2cccc3ccccc23)cc1 [Compound 23a] | significantly decreased cellular activity |  | 
3 | COC(=O)/C=C/C(=O)N(O)CCCC[N+](C)(C)Cc1ccc(COC(=O)Nc2cccc3ccccc23)cc1.[I-] [Compound 23f] | reduced its activity |  | 
4 | COC(=O)CNC(=O)C(=O)OC [DMOG, dimethyl oxalylglycine, reference compound] |  | significantly increased cellular levels of HIF-1α | 
5 | deferoxamine mesylate salt [DFO, reference compound] |  | significantly increased cellular levels of HIF-1α | 
